Measurements taken from patent US20240301319A1, “PERFUMING COMPOSITIONS” (FIRMNICH SA, priority 2017, published 2024).
One block for each compound: values may come before it.

Key:
[1] = Volatility of perfuming compounds (Tables 4 to 10), with top/middle/bottom note type; format: physicochemical
Outline: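 Note type follows from air volatility (μg/l): bottom 49–0.1, middle 99–50, top 70,000–100. Compounds are listed within watery, green, fruity, citrus, sweet, gourmand and woody families.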

[2] = Odor threshold and odor value of perfuming compounds (Tables 4 to 10)
[3] = Table 6, perfuming compounds having a fruity note
[4] = Table 6, perfuming compounds having a fruity note, note type by volatility
[5] = Table 10, perfuming compounds having a woody note, note type by volatility
[6] = Table 4, watery note, top, middle or bottom note
[7] = Table 4, watery note, equals volatility divided by odor threshold
[8] = Table 7, citrus note, top, middle or bottom note
[9] = note type (Top/Middle/Bottom) by volatility, perfuming compounds having a green note
[10] = perfuming compounds having a green note
[11] = Table 7, citrus note, equals volatility divided by odor threshold
[12] = Table 8, perfuming compounds having a sweet note
[13] = Table 8, perfuming compounds having a sweet note, note type by volatility
[14] = Table 9, perfuming compounds having a gourmand note, note type by volatility

Compound: CCCCCC=O [hexanal]
- Volatility (μg/l air) ([1]; Table 7, citrus note): 68294.85 μg/l air
- Type [1, 8]: Top
- Type [1, 9]: Top
- Volatility (μg/l air) [1, 10]: 68294.85 μg/l air
- Odor Threshold (μg/l air) ([2]; Table 7, citrus note): 1.76E−03 μg/l air
- Odor Value [2, 11]: 3.88E+07
- Odor Threshold (μg/l air) [2, 10]: 1.76E−03 μg/l air

Compound: CCCC(O)CC[C@@H]1[C@@H](C)CCCC1(C)C (mixture of isomers)
- Type [1, 5]: Bottom
- Volatility ([1]; Table 10, woody note): 2.34 μg/l air
- Odor Threshold ([2]; Table 10, woody note): 5.92E−04 μg/l air

Compound: CC/C=C\CC1=C(C)CCC1=O
- Volatility [1, 12]: 56.72 μg/l air
- Type [1, 13]: Middle
- Volatility ([1]; Table 9, gourmand note): 56.72 μg/l air
- Type [1, 14]: Middle
- Odor Threshold [2, 12]: 2.16E−04 μg/l air
- Odor Value [2, 12]: 2.63E+05
- Odor Threshold ([2]; Table 9, gourmand note): 2.16E−04 μg/l air

Compound: CCCCC/C=C\C=C\C(=O)OCC [ethyl (2E,4Z)-2,4-decadienoate]
- Volatility [1, 3]: 36.76 μg/l air
- Type [1, 4]: Bottom
- Type [1, 9]: Bottom
- Volatility (μg/l air) [1, 10]: 36.76 μg/l air
- Odor Threshold [2, 3]: 3.07E−04 μg/l air
- Odor Value [2, 3]: 1.20E+05
- Odor Threshold (μg/l air) [2, 10]: 3.07E−04 μg/l air

Compound: (2RS,4SR)-4-methyl-2-phenyltetrahydro-2H-pyran (A) + (2RS,4RS)-4-methyl-2-phenyltetrahydro-2H-pyran (B)
- Volatility (μg/l air) ([1]; Table 7, citrus note): 99.84 μg/l air
- Type [1, 8]: Middle
- Odor Threshold (μg/l air) ([2]; Table 7, citrus note): 1.04E−03 μg/l air
- Odor Value [2, 11]: 9.61E+04

Compound: CC(=O)/C=C/C1C(C)=CCCC1(C)C (racemic)
- Type [1, 9]: Middle
- Volatility (μg/l air) [1, 10]: 68.11 μg/l air
- Odor Threshold (μg/l air) [2, 10]: 5.30E−04 μg/l air

Compound: C=C1CCCC(C)(C)C1C(=O)/C=C/C (racemic)
- Volatility [1, 3]: 152.99 μg/l air
- Type [1, 4]: TOP (perfuming compounds having a volatility ranging from 70,000 to 100 μg/l in air are referred to as “top notes”)
- Volatility [1, 12]: 152.99 μg/l air
- Type [1, 13]: Top
- Volatility ([1]; Table 9, gourmand note): 152.99 μg/l air
- Type [1, 14]: Top
- Odor Threshold [2, 12]: 3.73E−03 μg/l air
- Odor Value [2, 12]: 4.10E+04
- Odor Threshold ([2]; Table 9, gourmand note): 3.73E−03 μg/l air

Further lines, with some results ahead:

- Volatility [1, 3]: 6677.64 μg/l air
- Type [1, 5]: Top
- Volatility ([1]; Table 10, woody note): 6677.64 μg/l air
Compound: CCCCC(CC)C(=O)OC (racemic) [(+−)-methyl 2-ethylhexanoate]
- Type [1, 4]: TOP (perfuming compounds having a volatility ranging from 70,000 to 100 μg/l in air are referred to as “top notes”)
- Odor Threshold ([2]; Table 10, woody note): 1.74E−01 μg/l air

- Volatility (μg/l air) ([1]; Table 4, watery note): 24.85 μg/l air
Compound: CC(C=O)Cc1ccc(C(C)C)cc1 (racemic) [(+−)-3-(4-isopropylphenyl)-2-methylpropanal]
- Type [1, 6]: bottom (perfuming compounds having a volatility ranging from 49 to 0.1 μg/l in air are referred to as “bottom notes”)
- Odor Threshold (μg/l air) ([2]; Table 4, watery note): 3.00E−03 μg/l air
- Odor Value [2, 7]: 8.28E+03

- Volatility (μg/l air) ([1]; Table 4, watery note): 48.69 μg/l air
Compound: 3-(4-ETHYLPHENYL)-2,2-DIMETHYLPROPANAL (A) + 3-(2-ETHYLPHENYL)-2,2-DIMETHYLPROPANAL (B)
- Type [1, 6]: bottom (perfuming compounds having a volatility ranging from 49 to 0.1 μg/l in air are referred to as “bottom notes”)
- Odor Threshold (μg/l air) ([2]; Table 4, watery note): 5.33E−03 μg/l air
- Odor Value [2, 7]: 9.14E+03

- Type [1, 5]: Top
- Volatility ([1]; Table 10, woody note): 755.28 μg/l air
Compound: CC(C)(C)C1CCC(=O)CC1 [4-(2-methyl-2-propanyl)cyclohexanone]
- Odor Threshold ([2]; Table 10, woody note): 1.15E−01 μg/l air

- Type [1, 9]: Top
- Volatility (μg/l air) [1, 10]: 421.15 μg/l air
Compound: CCC(C)(O)CCCC(C)C (racemic)
- Odor Threshold (μg/l air) [2, 10]: 3.45E−03 μg/l air

- Volatility [1, 3]: 256.81 μg/l air
- Volatility [1, 12]: 256.81 μg/l air
- Type [1, 13]: Top
- Type [1, 9]: Top
- Volatility (μg/l air) [1, 10]: 256.81 μg/l air
Compound: C/C=C(\C)C(=O)OCCCCCC [hexyl (2E)-2-methyl-2-butenoate]
- Type [1, 4]: TOP (perfuming compounds having a volatility ranging from 70,000 to 100 μg/l in air are referred to as “top notes”)
- Odor Threshold [2, 12]: 1.16E−02 μg/l air
- Odor Value [2, 12]: 2.22E+04
- Odor Threshold (μg/l air) [2, 10]: 1.16E−02 μg/l air

- Volatility [1, 3]: 9902.98 μg/l air
- Volatility [1, 12]: 9902.98 μg/l air
- Type [1, 13]: Top
- Volatility ([1]; Table 9, gourmand note): 9902.98 μg/l air
- Type [1, 14]: Top
Compound: C=C(C)CC(C)OC(=O)C(C)C (racemic)
- Type [1, 4]: TOP (perfuming compounds having a volatility ranging from 70,000 to 100 μg/l in air are referred to as “top notes”)
- Odor Threshold [2, 12]: 2.26E−01 μg/l air
- Odor Value [2, 12]: 4.39E+04
- Odor Threshold ([2]; Table 9, gourmand note): 2.26E−01 μg/l air

- Type [1, 5]: Middle
- Volatility ([1]; Table 10, woody note): 82.95 μg/l air
Compound: COc1ccc(OC)c(C(C)(C)C)c1 [2-TERT-BUTYL-1,4-DIMETHOXYBENZENE]
- Odor Threshold ([2]; Table 10, woody note): 1.65E−02 μg/l air
